According to patent US20240316165A1, “POLYNUCLEOTIDES ENCODING PROPIONYL-COA CARBOXYLASE ALPHA AND BETA SUBUNITS FOR THE TREATMENT OF PROPIONIC ACIDEMIA” (ModernaTX, Inc., priority 2021, published 2024):

Test: tissue kinetics of the components of the drug product in rodents
Assay type: in vivo
Conditions: tissue (tissue with the maximum mean value; not named), read-out: maximum mean tissue terminal-phase elimination half-life (t1/2) (converted)
Method: An initial dosing interval of q3W is proposed on the basis of the duration of biomarker response observed in pharmacology studies in Peca−/−(A138T) mice. Specifically, at the minimum efficacious dose level of 0.5 mg/kg, decreases in plasma disease biomarkers were sustained for 3 weeks before rebounding toward pretreatment levels in propionic acidemia mice. The potential for drug product accumulation is considered low, with the planned clinical dosing regimen based on the kinetics of the components of the drug product.

half-life: 54.4 h
Compound: CCCCCCCCCOC(=O)CCCCCCCN(CCO)CCCCCCCC(=O)OC(CCCCCCCC)CCCCCCCC [Compound II]
